What was measured:
SU-DHL-10-epst = experiment: Combination study, ATPLite 72 h, dose matrix (Synergy Score, CI50)
Description: Cells are thawed from a liquid nitrogen preserved state. Once cells have been expanded and divide at their expected doubling times, screening begins. Cells are seeded in growth media in either black 1536-well or 384-well tissue culture treated plates. Cells are then equilibrated in assay plates via centrifugation and placed in incubators attached to the Dosing Modules at 37° C. for 24 hours before treatment. […] These Tzero (To) plates are read using ultra-sensitive luminescence on Envision plate readers (Perkin Elmer). Treated assay plates are incubated with compound for 72 hours. After 72 hours, plates are developed for endpoint analysis using ATPLite. All data points are collected via automated processes, quality controlled and analyzed using Zalicus software.
The measure of effect in the experiment can be the inhibition of cellular response relative to the untreated level (vehicle alone). […] The inhibition ranges from 0% at the untreated level to 100% when T=0. Inhibition levels are negative for agents that actually increase levels.
Growth Inhibition (GI) is used as a measure of cell viability. […] A GI reading of 100% represents complete growth inhibition—T72 compound-treated and T0 vehicle signals are matched. […] A GI reading of 200% represents complete death of all cells in the culture well. Compounds reaching an activity plateau of GI 200% are considered cytotoxic. GI is calculated by applying the following test and equation:
Combination analysis data were collected in a 6×6 dose matrix. Synergy is calculated by comparing a combination's response to those of its single compound, against the drug-with-itself dose-additive reference model. Deviations from dose additivity may be assessed visually on an isobologram or numerically with a Combination Index (CI). […] Additive effect is CI=1.0. […] Antagonistic effect is CI>1.0.
To measure combination effects in excess of Loewe additivity, a scalar measure to characterize the strength of synergistic interaction termed the Synergy Score is devised. The Synergy Score is calculated as:
The fractional inhibition for each component agent and combination point in the matrix is calculated relative to the median of all vehicle-treated control wells. The Synergy Score equation integrates the experimentally-observed activity volume at each point in the matrix in excess of a model surface numerically derived from the activity of the component agents using the Loewe model for additivity. Additional terms in the Synergy Score equation (above) are used to normalize for various dilution factors used for individual agents and to allow for comparison of synergy scores across an entire experiment. The inclusion of positive inhibition gating or an Idata multiplier removes noise near the zero effect level, and biases results for synergistic interactions at that occur at high activity levels.
Loewe Volume (Loewe Vol) is used to assess the overall magnitude of the combination interaction in excess of the Loewe additivity model. Loewe Volume is particularly useful when distinguishing synergistic increases in a phenotypic activity (positive Loewe Volume) versus synergistic antagonisms (negative Loewe Volume). […] This model defines additivity as a non-synergistic combination interaction where the combination dose matrix surface should be indistinguishable from either drug crossed with itself. The calculation for Loewe additivity is:

SU-DHL-6-epst = experiment: Combination study of Compound 1 or CAL-101 and a second therapeutic agent (Synergy Score, CI50); assay type: cell-based
DOHH-2 = experiment: Combination study, ATPLite 72 h, dose matrix (Synergy Score, CI50)
Farage = experiment: as above; conditions: Farage
SU-DHL-4-epst = experiment: as above

**Q.** How did the CI50 growth inhibition (SU-DHL-10-epst; combination with Dexamethasone) turn out when `CC[C@H](Nc1ncnc2[nH]cnc12)c1nc2cccc(F)c2c(=O)n1-c1ccccc1` [CAL-101] was run?
**A.** S (S=0.01 to <0.5)

**Q.** And the CI50 inhibition (SU-DHL-10-epst; combination with Dexamethasone)?
**A.** S (S=0.01 to <0.5)

**Q.** And the “Synergy Score growth inhibition” value (SU-DHL-10-epst; combination with Dexamethasone)?
**A.** A3 (A3=>3)

**Q.** And the “Synergy Score inhibition” value (SU-DHL-10-epst; combination with Dexamethasone)?
**A.** A2 (A2=1 to <3)

**Q.** And the CI50 growth inhibition (SU-DHL-10-epst; combination with LEE011)?
**A.** T (T=0.5 to <0.7)

**Q.** And the CI50 inhibition (SU-DHL-10-epst; combination with LEE011)?
**A.** T (T=0.5 to <0.7)

**Q.** What about the “Synergy Score growth inhibition” value (SU-DHL-10-epst; combination with LEE011) of the same compound?
**A.** A3 (A3=>3)

**Q.** What about the “Synergy Score inhibition” value (SU-DHL-10-epst; combination with LEE011) of the same compound?
**A.** A2 (A2=1 to <3)

**Q.** What about the CI50 growth inhibition (SU-DHL-10-epst; combination with PCI-32765) of the same compound?
**A.** U (U=0.7 to <1)

**Q.** And the CI50 inhibition (SU-DHL-10-epst; combination with PCI-32765)?
**A.** U (U=0.7 to <1)

**Q.** And the “Synergy Score growth inhibition” value (SU-DHL-10-epst; combination with PCI-32765)?
**A.** A2 (A2=1 to <3)

**Q.** And the “Synergy Score inhibition” value (SU-DHL-10-epst; combination with PCI-32765)?
**A.** A2 (A2=1 to <3)

**Q.** What about the CI50 growth inhibition (SU-DHL-10-epst; combination with PD-0332991) of the same compound?
**A.** S (S=0.01 to <0.5)

**Q.** What about the CI50 inhibition (SU-DHL-10-epst; combination with PD-0332991) of the same compound?
**A.** S (S=0.01 to <0.5)

**Q.** What about the “Synergy Score growth inhibition” value (SU-DHL-10-epst; combination with PD-0332991) of the same compound?
**A.** A3 (A3=>3)

**Q.** And the “Synergy Score inhibition” value (SU-DHL-10-epst; combination with PD-0332991)?
**A.** A3 (A3=>3)

**Q.** What about the CI50 growth inhibition (SU-DHL-6-epst; combination with Dexamethasone) of the same compound?
**A.** T (T=0.5 to <0.7)

**Q.** And the CI50 inhibition (SU-DHL-6-epst; combination with Dexamethasone)?
**A.** S (S=0.01 to <0.5)

**Q.** What about the “Synergy Score growth inhibition” value (SU-DHL-6-epst; combination with Dexamethasone) of the same compound?
**A.** A2 (A2=1 to <3)

**Q.** And the “Synergy Score inhibition” value (SU-DHL-6-epst; combination with Dexamethasone)?
**A.** A2 (A2=1 to <3)

**Q.** And the CI50 growth inhibition (SU-DHL-6-epst; combination with LEE011)?
**A.** S (S=0.01 to <0.5)

**Q.** And the CI50 inhibition (SU-DHL-6-epst; combination with LEE011)?
**A.** S (S=0.01 to <0.5)

**Q.** And the “Synergy Score growth inhibition” value (SU-DHL-6-epst; combination with LEE011)?
**A.** A2 (A2=1 to <3)

**Q.** And the “Synergy Score inhibition” value (SU-DHL-6-epst; combination with LEE011)?
**A.** A2 (A2=1 to <3)

**Q.** And the CI50 growth inhibition (SU-DHL-6-epst; combination with PCI-32765)?
**A.** T (T=0.5 to <0.7)

**Q.** And the CI50 inhibition (SU-DHL-6-epst; combination with PCI-32765)?
**A.** T (T=0.5 to <0.7)

**Q.** What about the “Synergy Score growth inhibition” value (SU-DHL-6-epst; combination with PCI-32765) of the same compound?
**A.** A2 (A2=1 to <3)

**Q.** And the “Synergy Score inhibition” value (SU-DHL-6-epst; combination with PCI-32765)?
**A.** A2 (A2=1 to <3)

**Q.** What about the CI50 growth inhibition (SU-DHL-6-epst; combination with PD-0332991) of the same compound?
**A.** T (T=0.5 to <0.7)

**Q.** And the CI50 inhibition (SU-DHL-6-epst; combination with PD-0332991)?
**A.** T (T=0.5 to <0.7)

**Q.** What about the “Synergy Score growth inhibition” value (SU-DHL-6-epst; combination with PD-0332991) of the same compound?
**A.** A2 (A2=1 to <3)

**Q.** What about the “Synergy Score inhibition” value (SU-DHL-6-epst; combination with PD-0332991) of the same compound?
**A.** A2 (A2=1 to <3)

**Q.** And the CI50 growth inhibition (DOHH-2; combination with Dexamethasone)?
**A.** T (T=0.5 to <0.7)

**Q.** And the CI50 inhibition (DOHH-2; combination with Dexamethasone)?
**A.** U (U=0.7 to <1)

**Q.** And the “Synergy Score growth inhibition” value (DOHH-2; combination with Dexamethasone)?
**A.** A3 (A3=>3)

**Q.** And the “Synergy Score inhibition” value (DOHH-2; combination with Dexamethasone)?
**A.** A2 (A2=1 to <3)

**Q.** What about the CI50 growth inhibition (DOHH-2; combination with LEE011) of the same compound?
**A.** T (T=0.5 to <0.7)

**Q.** What about the CI50 inhibition (DOHH-2; combination with LEE011) of the same compound?
**A.** T (T=0.5 to <0.7)

**Q.** And the “Synergy Score growth inhibition” value (DOHH-2; combination with LEE011)?
**A.** A3 (A3=>3)

**Q.** What about the “Synergy Score inhibition” value (DOHH-2; combination with LEE011) of the same compound?
**A.** A2 (A2=1 to <3)

**Q.** What about the CI50 growth inhibition (DOHH-2; combination with PCI-32765) of the same compound?
**A.** S (S=0.01 to <0.5)

**Q.** What about the CI50 inhibition (DOHH-2; combination with PCI-32765) of the same compound?
**A.** S (S=0.01 to <0.5)

**Q.** What about the “Synergy Score growth inhibition” value (DOHH-2; combination with PCI-32765) of the same compound?
**A.** A3 (A3=>3)

**Q.** And the “Synergy Score inhibition” value (DOHH-2; combination with PCI-32765)?
**A.** A3 (A3=>3)

**Q.** What about the CI50 growth inhibition (DOHH-2; combination with PD-0332991) of the same compound?
**A.** T (T=0.5 to <0.7)

**Q.** What about the CI50 inhibition (DOHH-2; combination with PD-0332991) of the same compound?
**A.** T (T=0.5 to <0.7)

**Q.** And the “Synergy Score growth inhibition” value (DOHH-2; combination with PD-0332991)?
**A.** A3 (A3=>3)

**Q.** What about the “Synergy Score inhibition” value (DOHH-2; combination with PD-0332991) of the same compound?
**A.** A2 (A2=1 to <3)

**Q.** And the CI50 growth inhibition (Farage; combination with Dexamethasone)?
**A.** U (U=0.7 to <1)

**Q.** What about the CI50 inhibition (Farage; combination with Dexamethasone) of the same compound?
**A.** S (S=0.01 to <0.5)

**Q.** What about the “Synergy Score growth inhibition” value (Farage; combination with Dexamethasone) of the same compound?
**A.** A3 (A3=>3)

**Q.** What about the “Synergy Score inhibition” value (Farage; combination with Dexamethasone) of the same compound?
**A.** A3 (A3=>3)

**Q.** And the CI50 growth inhibition (Farage; combination with LEE011)?
**A.** W (W=≥1)

**Q.** What about the CI50 inhibition (Farage; combination with LEE011) of the same compound?
**A.** W (W=≥1)

**Q.** What about the “Synergy Score growth inhibition” value (Farage; combination with LEE011) of the same compound?
**A.** A1 (A1=0.0001 to <1)

**Q.** What about the “Synergy Score inhibition” value (Farage; combination with LEE011) of the same compound?
**A.** A1 (A1=0.0001 to <1)

**Q.** What about the CI50 growth inhibition (Farage; combination with PCI-32765) of the same compound?
**A.** S (S=0.01 to <0.5)

**Q.** And the CI50 inhibition (Farage; combination with PCI-32765)?
**A.** S (S=0.01 to <0.5)

**Q.** What about the “Synergy Score growth inhibition” value (Farage; combination with PCI-32765) of the same compound?
**A.** A3 (A3=>3)

**Q.** And the “Synergy Score inhibition” value (Farage; combination with PCI-32765)?
**A.** A3 (A3=>3)

**Q.** What about the CI50 growth inhibition (Farage; combination with PD-0332991) of the same compound?
**A.** T (T=0.5 to <0.7)

**Q.** What about the CI50 inhibition (Farage; combination with PD-0332991) of the same compound?
**A.** T (T=0.5 to <0.7)

**Q.** What about the “Synergy Score growth inhibition” value (Farage; combination with PD-0332991) of the same compound?
**A.** A2 (A2=1 to <3)

**Q.** And the “Synergy Score inhibition” value (Farage; combination with PD-0332991)?
**A.** A1 (A1=0.0001 to <1)

**Q.** What about the CI50 growth inhibition (SU-DHL-4-epst; combination with Dexamethasone) of the same compound?
**A.** S (S=0.01 to <0.5)

**Q.** What about the CI50 inhibition (SU-DHL-4-epst; combination with Dexamethasone) of the same compound?
**A.** S (S=0.01 to <0.5)

**Q.** What about the “Synergy Score growth inhibition” value (SU-DHL-4-epst; combination with Dexamethasone) of the same compound?
**A.** A3 (A3=>3)

**Q.** And the “Synergy Score inhibition” value (SU-DHL-4-epst; combination with Dexamethasone)?
**A.** A3 (A3=>3)

**Q.** And the CI50 growth inhibition (SU-DHL-4-epst; combination with LEE011)?
**A.** S (S=0.01 to <0.5)

**Q.** What about the CI50 inhibition (SU-DHL-4-epst; combination with LEE011) of the same compound?
**A.** T (T=0.5 to <0.7)

**Q.** And the “Synergy Score growth inhibition” value (SU-DHL-4-epst; combination with LEE011)?
**A.** A2 (A2=1 to <3)

From US20240325398A1, “COMBINATION THERAPIES” (Infinity Pharmaceuticals, Inc., priority 2014, published 2024)
